This is an account of results in patent US20240246946A1, “MODULATORS OF TREX1” (Constellation Pharmaceuticals, Inc., priority 2021, published 2024).

Test [1] has as its target T1, full length human TREX1 (Homo sapiens, UniProt Q9NSU2).
T1 construct: N-terminally His-Tev tagged full length human TREX1; made in house; host or cells: E. coli
T1 sequence (Q9NSU2 1-314): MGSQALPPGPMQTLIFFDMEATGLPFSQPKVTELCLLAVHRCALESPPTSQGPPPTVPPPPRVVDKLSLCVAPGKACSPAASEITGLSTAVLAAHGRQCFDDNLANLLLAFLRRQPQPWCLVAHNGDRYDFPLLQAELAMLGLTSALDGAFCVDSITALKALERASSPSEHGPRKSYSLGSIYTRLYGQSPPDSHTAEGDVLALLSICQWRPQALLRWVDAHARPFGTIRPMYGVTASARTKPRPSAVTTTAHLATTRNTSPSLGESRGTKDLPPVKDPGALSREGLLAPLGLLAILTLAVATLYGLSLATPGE
Description: hTREX1 Biochemical Assay (fluorescence, dsDNA substrate degradation). The note with it: biochemical, read-out: hTREX1 IC50. Put shortly:
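Cleavage of 60 nM TEX615/quencher-labelled dsDNA in pH 7.4 Tris buffer with 5 mM MgCl2, 1.0% DMSO, run 18 hours at 25° C, EDTA-quenched; fluorescence read-out.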

The target of test [2] is T2, full length mouse TREX1 (Mus musculus, UniProt Q91XB0).
T2 construct: N-terminally His-Tev tagged full length mouse TREX1; made in house; host or cells: E. coli
T2 sequence (Q91XB0 1-314): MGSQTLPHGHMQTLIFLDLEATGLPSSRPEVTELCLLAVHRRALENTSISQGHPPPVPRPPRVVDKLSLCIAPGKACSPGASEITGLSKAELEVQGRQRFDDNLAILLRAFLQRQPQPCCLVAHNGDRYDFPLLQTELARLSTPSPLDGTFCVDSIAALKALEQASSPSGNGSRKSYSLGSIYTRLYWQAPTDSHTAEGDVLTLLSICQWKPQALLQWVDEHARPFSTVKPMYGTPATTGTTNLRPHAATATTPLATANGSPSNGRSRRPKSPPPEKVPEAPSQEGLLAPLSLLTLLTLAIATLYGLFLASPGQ
Description: mTREX1 Biochemical Assay (fluorescence, dsDNA substrate degradation). As to conditions: biochemical, read-out: mTREX1 IC50. Summed up:
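Reaction run 18 h at 25° C. with 60 nM TEX615/quencher-labelled dsDNA and 6 pM mouse TREX1 in Tris buffer (pH 7.4, 5 mM MgCl2, 1.0% DMSO), enzyme having sat 4 h with compound across 10 concentrations. EDTA quench; substrate degradation measured as fluorescence increase.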

Test [3] deals with T3, human TREX2 (residues M44-A279) (Homo sapiens, UniProt Q9BQ50).
T3 construct: human TREX2 (residues M44-A279, expressed in E. coli); made in house; host or cells: E. coli
T3 sequence (Q9BQ50 44-279 isoform Q9BQ50-1): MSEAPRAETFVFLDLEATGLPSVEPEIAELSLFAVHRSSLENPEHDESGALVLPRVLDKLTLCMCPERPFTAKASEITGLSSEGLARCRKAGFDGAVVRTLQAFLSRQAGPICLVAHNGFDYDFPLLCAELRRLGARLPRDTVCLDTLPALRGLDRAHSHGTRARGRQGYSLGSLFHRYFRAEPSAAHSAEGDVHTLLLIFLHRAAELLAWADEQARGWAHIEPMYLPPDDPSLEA
Description: hTREX2 Biochemical Assay (fluorescence, dsDNA substrate degradation). As to conditions: biochemical selectivity for hTREX1 vs hTREX2. Summed up: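 N-His-Tev E. coli enzyme (50 pM) pre-incubated with compound 4 h at 25 °C, then 60 nM TEX615/quencher dsDNA added; 18 h at 25 °C, pH 7.4 Tris buffer with 5 mM MgCl2, 1.0% DMSO. EDTA-quenched; fluorescence 570 ex/615 em from liberated fluorophore, 10-point dose-response.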

With `Cc1ccn(C(c2ccccc2C#N)C(C)c2nc(C(=O)Nc3cnoc3)c(O)c(=O)n2C)n1` (single isomer, unassigned) [Example 132 D1E1], the IC50 in test [1] and in test [2] was greater than 0.01 µM each time. In test [3], the “hTREX1 vs hTREX2 selectivity” value is listed as “A (A = <25 fold selective for hTREX1)”.

Take `Cc1cnn(C(c2cc(F)ccc2Cl)C(C)c2nc(C(=O)Nc3cnoc3)c(O)c(=O)n2C)c1` (single isomer, unassigned) [Example 144 D1E1]: the IC50 in test [1] and in test [2] was greater than 0.01 µM each time. Further, in test [3], the “hTREX1 vs hTREX2 selectivity” value was “A (A = <25 fold selective for hTREX1)”.

On to `CC(c1nc(C(=O)Nc2cnoc2)c(O)c(=O)n1C)C(c1cnn(CCCN(C)C)c1)c1ccccc1C#N` (single isomer, unassigned) [Example 34 D2E1], for which the IC50 in test [1] and in test [2] was greater than 0.01 µM in each case. Besides, the “hTREX1 vs hTREX2 selectivity” value in test [3] is “C (C = >50 fold selective for hTREX1)”.

As to `Cc1nc(C)c(C(c2ccccc2C#N)C(C)c2nc(C(=O)Nc3cnoc3)c(O)c(=O)n2C)nc1C` (single isomer, unassigned) [Example 122 D1E2], the IC50 in test [1] and in test [2] was greater than 0.01 µM each time. Further, the “hTREX1 vs hTREX2 selectivity” value in test [3] is “B (B = 25 to 50-fold selective for hTREX1)”.

With `Cc1ncc(C(c2ccccc2Cl)C(C)c2nc(C(=O)Nc3cnoc3)c(O)c(=O)n2C)cn1` (single isomer, unassigned) [Example 44 D1E1], the IC50 in test [1] and in test [2] was greater than 0.01 µM in each case. Also, the “hTREX1 vs hTREX2 selectivity” value in test [3] was “A (A = <25 fold selective for hTREX1)”.

Consider `CC(c1nc(C(=O)Nc2cnoc2)c(O)c(=O)n1C)C(c1cnn(C)c1)c1ccc(C(=O)N(C)C)cc1C#N` (single isomer, unassigned) [Example 11 D1E2], for which the IC50 in test [1] and in test [2] was greater than 0.01 µM in each case. Besides, the “hTREX1 vs hTREX2 selectivity” value in test [3] is “B (B = 25 to 50-fold selective for hTREX1)”.

For `Cc1cc(C)n(C(c2ccccc2C#N)C(C)c2nc(C(=O)Nc3cnoc3)c(O)c(=O)n2C)n1` (single isomer, unassigned) [Example 137 D1E2], the concentration for half-maximal inhibition (IC50) in test [1] and in test [2] was greater than 0.01 µM each time. For the same compound, the “hTREX1 vs hTREX2 selectivity” value in test [3] is listed as “A (A = <25 fold selective for hTREX1)”.

Regarding `CC(c1nc(C(=O)Nc2cnoc2)c(O)c(=O)n1C)C(c1cnn(CC(C)(C)C#N)c1)c1cc(F)ccc1Cl` (single isomer, unassigned) [Example 99 D1E2], the IC50 in test [1] and in test [2] was 0.001 to 0.01 µM each time. Also, the “hTREX1 vs hTREX2 selectivity” value in test [3] is given as “B (B = 25 to 50-fold selective for hTREX1)”.

`COCCn1ncc(C(c2cc(F)ccc2Cl)C(C)c2nc(C(=O)Nc3cnoc3)c(O)c(=O)n2C)c1C` (single isomer, unassigned) [Example 108 D2E2]: the IC50 in test [1] and in test [2] was greater than 0.01 µM throughout. In addition, the “hTREX1 vs hTREX2 selectivity” value in test [3] was “A (A = <25 fold selective for hTREX1)”.

In the case of `CC(c1nc(C(=O)Nc2cnoc2)c(O)c(=O)n1C)C(c1ccccc1Cl)n1nccc1C#N` (single isomer, unassigned) [Example 140 D1E2], the IC50 in test [1] and in test [2] was greater than 0.01 µM each time. Further, the “hTREX1 vs hTREX2 selectivity” value in test [3] is on record as “A (A = <25 fold selective for hTREX1)”.

As for `Cc1n[nH]c(C)c1C(c1ccccc1C#N)C(C)c1nc(C(=O)Nc2cnoc2)c(O)c(=O)n1C` (single isomer, unassigned) [Example 95 D2E2], the IC50 in test [1] and in test [2] was greater than 0.01 µM throughout. Also, in test [3], the “hTREX1 vs hTREX2 selectivity” value is “A (A = <25 fold selective for hTREX1)”.

For `Cc1nn(C)c(C)c1C(c1ccccc1C#N)C(C)c1nc(C(=O)Nc2cnoc2)c(O)c(=O)n1C` (single isomer, unassigned) [Example 78 D1E2], the IC50 in test [1] and in test [2] was greater than 0.01 µM in each case. Also, in test [3], the “hTREX1 vs hTREX2 selectivity” value is on record as “A (A = <25 fold selective for hTREX1)”.

Usually IC50 stands for the concentration that gives 50% inhibition.
